The assay concerns T47D (PIK3CA H1047R) cells. The experiment in a line: pS473 AKT assay with 2.5% FBS, T47D cells. In kind it is cell-based. The following applies: Homo sapiens, pSer473 AKT, DMEM with 2.5% FBS, 2 h treatment, read-out: T47D_IC50. The method, then:
Example B. pS473 AKT Assay Protocol with 2.5% FBS
T47D (PIK3CA H1047R) cells were cultured using 10-cm petri dishes with recommended medium plus 10% fetal bovine serum. One day before the assay, cells were seeded in 96-well plates. After overnight incubation, the medium was changed to DMEM with 2.5% fetal bovine serum (FBS) and the cells were treated with different concentrations of the compounds for 2 h. Cells were then fixed using 4% paraformaldehyde at room temperature for 20 min. Aspirate 4% paraformaldehyde, and wash cells using 1× regular phosphate buffered saline 3 times, 5 min each. Aspirate any residual phosphate buffered saline and block cells using 10% goat serum containing 1% bovine serum albumin and 0.3% Triton X-100 at room temperature for 1 h. Without any additional washing, primary antibodies (rabbit anti-pSer473 AKT) were diluted using blocking buffer and added at a final volume of 50 microliter per well. Keep assay plates with primary antibodies overnight at 4° C. Wash cells using 1× regular phosphate buffered saline 3 times, 5 min each. After the final wash, incubate cells with horseradish peroxidase-conjugated secondary antibodies (goat Anti-rabbit IgG) diluted using the same blocking buffer at room temperature for 1 h. Wash cells thoroughly using 1× regular phosphate buffered saline 3 times, 5 min each. Aspirate any residual phosphate buffered saline. Add Super-Signal ELISA Pico Chemiluminescent Substrate at a final volume of 100 microliter per well. Read plates on i3x Multi-Mode Microplate Reader and calculate IC50 values using GraphPad Prism software.

In patent publication US20250270213A1, “PI3Ka INHIBITORS” (Synnovation Therapeutics, Inc., priority 2022, published 2025) one finds IC50 data, which are given here for 19 molecules.

With `CCn1ncc2c3c(C(C)Nc4ccc(Cl)nc4-c4noc(=O)[nH]4)cc(C)cc3c(=O)n(CC(F)F)c21` (stereo not shown) [Compound 60, 3-(6-Chloro-3-((1-(4-(2,2-difluoroethyl)-3-ethyl-7-methyl-5-oxo-4,5-dihydro-3H-pyrazolo[3,4-c]isoquinolin-9-yl)ethyl)amino)pyridin-2-yl)-1,2,4-oxadiazol-5(4H)-one], the IC50 was less than 1000 nM.

As to `Cc1cc(C(C)Nc2ccc(Cl)nc2-c2noc(=O)[nH]2)c2c(c1)c(=O)n(C)c1c2cnn1C1CCCC1` (stereo not shown) [Compound 61, 3-(6-Chloro-3-((1-(3-cyclopentyl-4,7-dimethyl-5-oxo-4,5-dihydro-3H-pyrazolo[3,4-c]isoquinolin-9-yl)ethyl)amino)pyridin-2-yl)-1,2,4-oxadiazol-5(4H)-one], the IC50 is less than 1000 nM.

Turning to `Cc1cc(C(C)Nc2ccc(Cl)nc2-c2noc(=O)[nH]2)c2c(c1)c(=O)n(C)c1c2cnn1C(C)C` (stereo not shown) [Compound 62, 3-(6-Chloro-3-((1-(3-isopropyl-4,7-dimethyl-5-oxo-4,5-dihydro-3H-pyrazolo[3,4-c]isoquinolin-9-yl)ethyl)amino)pyridin-2-yl)-1,2,4-oxadiazol-5(4H)-one], the IC50 was less than 1000 nM.

With `CCn1ncc2c3c(C(C)Nc4ccc(Cl)nc4-c4noc(=O)[nH]4)cc(Cl)cc3c(=O)n(C)c21` (stereo not shown) [Compound 63, 3-(6-Chloro-3-((1-(7-chloro-3-ethyl-4-methyl-5-oxo-4,5-dihydro-3H-pyrazolo[3,4-c]isoquinolin-9-yl)ethyl)amino)pyridin-2-yl)-1,2,4-oxadiazol-5(4H)-one], the IC50 is less than 1000 nM.

Turning to `CC(Nc1ccc(Cl)nc1-c1noc(=O)[nH]1)c1cc(Cl)cc2c(=O)n(C)c3c(cnn3CC3CC3)c12` (stereo not shown) [Compound 64, 3-(6-Chloro-3-((1-(7-chloro-3-(cyclopropylmethyl)-4-methyl-5-oxo-4,5-dihydro-3H-pyrazolo[3,4-c]isoquinolin-9-yl)ethyl)amino)pyridin-2-yl)-1,2,4-oxadiazol-5(4H)-one], the IC50 was less than 1000 nM.

On to `CCCn1ncc2c3c(C(C)Nc4ccc(Cl)nc4-c4noc(=O)[nH]4)cc(C)cc3c(=O)n(C)c21` (stereo not shown) [Compound 65, 3-(6-Chloro-3-((1-(4,7-dimethyl-5-oxo-3-propyl-4,5-dihydro-3H-pyrazolo[3,4-c]isoquinolin-9-yl)ethyl)amino)pyridin-2-yl)-1,2,4-oxadiazol-5(4H)-one], for which the IC50 was less than 1000 nM.

Regarding `Cc1cc(C(C)Nc2ccc(Cl)nc2-c2noc(=O)[nH]2)c2c(c1)c(=O)n(C)c1c2cnn1C1CCOC1` (stereo not shown) [Compound 66, 3-(6-Chloro-3-((1-(4,7-dimethyl-5-oxo-3-(tetrahydrofuran-3-yl)-4,5-dihydro-3H-pyrazolo[3,4-c]isoquinolin-9-yl)ethyl)amino)pyridin-2-yl)-1,2,4-oxadiazol-5(4H)-one], the IC50 was less than 1000 nM.

Turning to `COCCn1ncc2c3c(C(C)Nc4ccc(Cl)nc4-c4noc(=O)[nH]4)cc(C)cc3c(=O)n(C)c21` (stereo not shown) [Compound 67, 3-(6-Chloro-3-((1-(3-(2-methoxyethyl)-4,7-dimethyl-5-oxo-4,5-dihydro-3H-pyrazolo[3,4-c]isoquinolin-9-yl)ethyl)amino)pyridin-2-yl)-1,2,4-oxadiazol-5(4H)-one], the IC50 was less than 1000 nM.

In the case of `Cc1cc(C(C)Nc2ccc(Cl)nc2-c2noc(=O)[nH]2)c2c(c1)c(=O)n(C)c1c2cnn1CC1CC1` (stereo not shown) [Compound 68, 3-(6-Chloro-3-((1-(3-(cyclopropylmethyl)-4,7-dimethyl-5-oxo-4,5-dihydro-3H-pyrazolo[3,4-c]isoquinolin-9-yl)ethyl)amino)pyridin-2-yl)-1,2,4-oxadiazol-5(4H)-one], the IC50 was less than 1000 nM.

As to `CCn1ncc2c3c(C(C)Nc4ccc(Cl)nc4-c4noc(=O)[nH]4)cc(C(F)(F)F)cc3c(=O)n(C)c21` (stereo not shown) [Compound 69, 3-(6-Chloro-3-((1-(3-ethyl-4-methyl-5-oxo-7-(trifluoromethyl)-4,5-dihydro-3H-pyrazolo[3,4-c]isoquinolin-9-yl)ethyl)amino)pyridin-2-yl)-1,2,4-oxadiazol-5(4H)-one], the IC50 was less than 1000 nM.

For `Cc1cc(C(C)Nc2ccc(Cl)nc2-c2noc(=O)[nH]2)c2c(c1)c(=O)n1c3c2cnn3C(C)CC1` (stereo not shown) [Compound 70, 3-(6-Chloro-3-((1-(3,8-dimethyl-6-oxo-4,5-dihydro-3H,6H-2,2a,5a-triazaaceanthrylen-10-yl)ethyl)amino)pyridin-2-yl)-1,2,4-oxadiazol-5(4H)-one], the IC50 is less than 1000 nM.

For `CCc1ncn2c3c(C(C)Nc4ccc(Cl)nc4-c4noc(=O)[nH]4)cc(C)cc3c(=O)n(C)c12` (stereo not shown) [Compound 71, 3-(6-Chloro-3-((1-(3-ethyl-4,7-dimethyl-5-oxo-4,5-dihydroimidazo[1,5-a]quinazolin-9-yl)ethyl)amino)pyridin-2-yl)-1,2,4-oxadiazol-5(4H)-one], the IC50 was less than 1000 nM.

With `CCn1ncc2c3c(C(C)Nc4cccnc4-c4nnn[nH]4)cc(C)cc3c(=O)n(C)c21` (stereo not shown) [Compound 72, 9-(1-((2-(1H-Tetrazol-5-yl)pyridin-3-yl)amino)ethyl)-3-ethyl-4,7-dimethyl-3,4-dihydro-5H-pyrazolo[3,4-c]isoquinolin-5-one], the IC50 was less than 1000 nM.

For `CCn1ncc2c3c(C(C)Nc4ccc(Cl)nc4C(=O)NC4CCN(C)CC4)cc(C)cc3c(=O)n(C)c21` (stereo not shown) [Compound 73, 6-Chloro-3-((1-(3-ethyl-4,7-dimethyl-5-oxo-4,5-dihydro-3H-pyrazolo[3,4-c]isoquinolin-9-yl)ethyl)amino)-N-(1-methylpiperidin-4-yl)picolinamide], the IC50 was less than 1000 nM.

Turning to `CCn1ncc2c3c(C(C)Nc4ccc(Cl)nc4C(=O)Nc4ccncc4)cc(C)cc3c(=O)n(C)c21` (stereo not shown) [Compound 74, 6-chloro-3-((1-(3-ethyl-4,7-dimethyl-5-oxo-4,5-dihydro-3H-pyrazolo[3,4-c]isoquinolin-9-yl)ethyl)amino)-N-(pyridin-4-yl)picolinamide], the IC50 was less than 1000 nM.

Turning to `CCn1ncc2c3c(C(C)Nc4ccc(Cl)nc4C(=O)NOC)cc(C)cc3c(=O)n(C)c21` (stereo not shown) [Compound 75, 6-chloro-3-((1-(3-ethyl-4,7-dimethyl-5-oxo-4,5-dihydro-3H-pyrazolo[3,4-c]isoquinolin-9-yl)ethyl)amino)-N-methoxypicolinamide], the IC50 is less than 1000 nM.

With `CCn1ncc2c3c(C(CO)Nc4ccc(Cl)nc4-c4ccncc4F)cc(C)cc3c(=O)n(C)c21` (stereo not shown) [Compound 76, 9-(1-((6-Chloro-3′-fluoro-[2,4′-bipyridin]-3-yl)amino)-2-hydroxyethyl)-3-ethyl-4,7-dimethyl-3,4-dihydro-5H-pyrazolo[3,4-c]isoquinolin-5-one], the IC50 is less than 1000 nM.

As to `CCn1ncc2c3c(C(CO)Nc4ccc(Cl)nc4-c4cnn(C)c4)cc(C)cc3c(=O)n(C)c21` (stereo not shown) [Compound 77, 9-(1-((6-Chloro-2-(1-methyl-1H-pyrazol-4-yl)pyridin-3-yl)amino)-2-hydroxyethyl)-3-ethyl-4,7-dimethyl-3,4-dihydro-5H-pyrazolo[3,4-c]isoquinolin-5-one], the IC50 was less than 1000 nM.

On to `CCn1ncc2c3c(C(CO)Nc4ccc(Cl)nc4-c4cnn(C)c4C)cc(C)cc3c(=O)n(C)c21` (stereo not shown) [Compound 78, 9-(1-((6-Chloro-2-(1,5-dimethyl-1H-pyrazol-4-yl)pyridin-3-yl)amino)-2-hydroxyethyl)-3-ethyl-4,7-dimethyl-3,4-dihydro-5H-pyrazolo[3,4-c]isoquinolin-5-one], for which the IC50 is less than 1000 nM.
